Reference: patent US11786609B2, “Lipid compound as well as lipid vector, nucleic acid lipid nanoparticle composition, and pharmaceutical preparation comprising the same” (PURECODON (HONG KONG) BIOPHARMA LIMITED, priority 2021, dated 2023)

Assays:
[1] = Particle size, PDI and encapsulation efficiency of LNP@mRNA; type: physicochemical; settings: Example 26: LNP@mRNA of compound, cholesterol, DOPE, PEG-DMG 35:46.5:16:2.5; luciferase mRNA
Method: (§1) Compounds 1, 2, 17, 27 or 33 was each dissolved in the first solution with cholesterol, DOPE and PEG-DMG in a molar ratio of 35:46.5:16:2.5, and luciferase mRNA was dissolved in the second solution. […] Microfluidics was utilized to quickly mix the two phases, and dialysis or tangential flow was utilized to replace the buffer environment with PBS (pH 7.4) and thus remove ethanol, so as to prepare and afford five kinds of LNP@mRNAs, respectively.
Microfluidics was utilized to quickly mix the two phases, and dialysis or tangential flow was utilized to replace the buffer environment with PBS (pH 7.4) and thus remove ethanol, so as to prepare and afford LNP@mRNA.
The particle size, PDI and encapsulation efficiency of each of the above-mentioned LNP@mRNAs were determined, and the results were successively shown in Table 3.

[2] = as above; type: physicochemical; settings: Example 26 LNP@mRNA, summary of Table 1
mice [3] = assay: Organ distribution of mRNA expression in mice after intravenous (tail vein) injection of LNP@mRNA; type: in vivo; settings: 6 hours after intravenous (tail vein) injection, anatomical image
Method: as §1
(§2) The prepared LNP@mRNAs were each injected into mice via tail vein or muscle, and the fluorescence intensities and organ distribution in mice were determined 6 hours later.

mice [4] = assay: Fluorescence intensity in mice after intramuscular injection of LNP@mRNA (luciferase mRNA); type: in vivo; settings: for maximum fluorescence intensity: intramuscular injection of LNP@mRNA (compound and other three lipids), FIG. 7
Method: as §1, §2
The prepared mRNA@LNPs were each injected into mice via intramuscular injection, and the fluorescence intensities and organ distribution in mice were determined 6 hours later.

Encapsulation efficiency [1] [%] | PDI [1] | Particle size [1] [nm] | encapsulation efficiency (in words) [2] | particle size (in words) [2] | Structure (SMILES) | mRNA expression in liver (mice [3]) | mRNA expression in spleen (mice [3]) | maximum fluorescence intensity (mice [4]) | expression relative to LNP@mRNA prepared by Compound 27 (mice [4]; intramuscular injection, ratio of maximum fluorescence intensities) [times]
96 | 0.14 | 95 | relatively high encapsulation efficiency | relatively small particle size | CCCCCCCCC(CCCCCC)C(=O)OCCN(CCCN(C)CCCN(CCOC(=O)C(CCCCCC)CCCCCCCC)CCOC(=O)C(CCCCCC)CCCCCCCC)CCOC(=O)C(CCCCCC)CCCCCCCC (centres unmarked) [Compound 1] |  |  |  | 
86 | 0.20 | 84 | relatively high encapsulation efficiency | relatively small particle size | CCCCCCC(CCCC)C(=O)OCCN(CCCN(C)CCCN(CCOC(=O)C(CCCC)CCCCCC)CCOC(=O)C(CCCC)CCCCCC)CCOC(=O)C(CCCC)CCCCCC (centres unmarked) [Compound 2] | few mRNA was expressed in liver | mainly expressed in spleen |  | 

Continued, compound first:

Structure (SMILES) | Encapsulation efficiency [1] [%] | PDI [1] | Particle size [1] [nm] | encapsulation efficiency (in words) [2] | particle size (in words) [2] | mRNA expression in liver (mice [3]) | mRNA expression in spleen (mice [3]) | maximum fluorescence intensity (mice [4]) | expression relative to LNP@mRNA prepared by Compound 27 (mice [4]; intramuscular injection, ratio of maximum fluorescence intensities) [times]
CCCCCCCCC(CCCCCC)C(=O)OCCCCCCN(CCCCCCOC(=O)C(CCCCCC)CCCCCCCC)CCCN(C)CCCN(CCCCCCOC(=O)C(CCCCCC)CCCCCCCC)CCCCCCOC(=O)C(CCCCCC)CCCCCCCC (centres unmarked) [Compound 17] | 96 | 0.19 | 184 | relatively high encapsulation efficiency |  |  |  |  | 
CCCCCCC(CCCC)C(=O)OCCCCCCN(CCCCCCOC(=O)C(CCCC)CCCCCC)CCCN(C)CCCN(CCCCCCOC(=O)C(CCCC)CCCCCC)CCCCCCOC(=O)C(CCCC)CCCCCC (centres unmarked) [Compound 27] | 57 | 0.21 | 90 |  | relatively small particle size | few mRNA was expressed in liver | mainly expressed in spleen | 3.39*10^5 | 
CCCCCCC(CCCC)C(=O)OCCCCOC(=O)CCN(CCCN(C)CCCN(CCC(=O)OCCCCOC(=O)C(CCCC)CCCCCC)CCC(=O)OCCCCOC(=O)C(CCCC)CCCCCC)CCC(=O)OCCCCOC(=O)C(CCCC)CCCCCC (centres unmarked) [Compound 33] | 96 | 0.11 | 86 | relatively high encapsulation efficiency | relatively small particle size | mainly expressed in liver | some mRNA was expressed in spleen | 1.59*10^7 | 46.9
